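Test compounds were applied to cells in 96-well plates for 48 hours at 5 doses. TGI denotes the concentration required for complete inhibition of growth.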
Key:
Test in all cases: NCI tumour cell line growth inhibition, 48 h
[1] = tested on: XF 498 CNS
[2] = tested on: HCT-15 colon
[3] = tested on: HT29 colon
[4] = tested on: DLD-1 colon
[5] = tested on: SF-295 CNS
[6] = tested on: HCC-2998 colon
[7] = tested on: HOP-92 NSCLC
[8] = tested on: A498 renal
[9] = tested on: CCRF-CEM leukemia
[10] = tested on: OVCAR-5 ovarian
[11] = tested on: DMS 114 small cell lung
[12] = tested on: KM20L2 colon
[13] = tested on: UACC-257 melanoma
[14] = tested on: NCI-H522 lung
[15] = tested on: LOX IMVI melanoma
[16] = tested on: HL-60(TB) leukemia
[17] = tested on: U251 CNS
[18] = tested on: SK-MEL-2 melanoma
[19] = tested on: EKVX NSCLC
[20] = tested on: IGROV1 ovarian
[21] = tested on: UACC-62 melanoma
[22] = tested on: KM12 colon
[23] = tested on: SW-620 colon
[24] = tested on: OVCAR-4 ovarian
[25] = tested on: SNB-78 CNS
[26] = tested on: OVCAR-8 ovarian
[27] = tested on: SF-268 CNS
[28] = tested on: OVCAR-3 ovarian
[29] = tested on: DMS 273 small cell lung
[30] = tested on: SK-MEL-28 melanoma
[31] = tested on: SF-539 CNS
[32] = tested on: UO-31 renal
[33] = tested on: CAKI-1 renal
[34] = tested on: RPMI-8226 leukemia
[35] = tested on: A549 NSCLC
[36] = tested on: M19-MEL melanoma
[37] = tested on: K-562 leukemia
[38] = tested on: NCI/ADR-RES ovarian
[39] = tested on: MOLT-4 leukemia
[40] = tested on: MCF7 breast
[41] = tested on: HOP-18 NSCLC
[42] = tested on: SK-MEL-5 melanoma
[43] = tested on: MALME-3M melanoma
[44] = tested on: NCI-H226 lung
[45] = tested on: P388/ADR leukemia
[46] = tested on: NCI-H460 lung
[47] = tested on: HCT-116 colon
[48] = tested on: SN12K1 renal
[49] = tested on: SNB-75 CNS
[50] = tested on: RXF 393 renal
[51] = tested on: P388 leukemia
[52] = tested on: SK-OV-3 ovarian
[53] = tested on: HOP-62 NSCLC
[54] = tested on: NCI-H23 lung
[55] = tested on: SN12C renal
[56] = tested on: SNB-19 CNS
[57] = tested on: COLO 205 colon

What does the source list for `COc1c2ccoc2c(S(=O)(=O)Nc2ccc(Cl)cc2)c2oc(C)cc(=O)c12`?
TGI [1]: > 100 µM; TGI [2]: > 100 µM; TGI [3]: > 100 µM; TGI [4]: > 100 µM; TGI [5]: > 100 µM; TGI [6]: > 100 µM; TGI [7]: > 93.6 µM; TGI [8]: > 100 µM; TGI [9]: > 100 µM; TGI [10]: > 100 µM; TGI [11]: > 100 µM; TGI [12]: > 100 µM; TGI [13]: > 100 µM; TGI [14]: > 100 µM; TGI [15]: > 100 µM; TGI [16]: > 31.6 µM; TGI [17]: > 100 µM; TGI [18]: > 100 µM; TGI [19]: > 100 µM; TGI [20]: > 100 µM; TGI [21]: > 100 µM; TGI [22]: > 100 µM; TGI [23]: > 100 µM; TGI [24]: > 67.2 µM; TGI [25]: > 100 µM; TGI [26]: > 100 µM; TGI [27]: > 100 µM; TGI [28]: > 100 µM; TGI [29]: > 100 µM; TGI [30]: > 100 µM; TGI [31]: > 93.9 µM; TGI [32]: > 100 µM; TGI [33]: > 95.9 µM; TGI [34]: > 100 µM; TGI [35]: > 100 µM; TGI [36]: > 100 µM; TGI [37]: > 100 µM; TGI [38]: > 100 µM; TGI [39]: > 100 µM; TGI [40]: > 100 µM; TGI [41]: > 100 µM; TGI [42]: > 100 µM; TGI [43]: > 100 µM; TGI [44]: > 100 µM; TGI [45]: > 100 µM; TGI [46]: > 100 µM; TGI [47]: > 89.2 µM; TGI [48]: > 100 µM; TGI [49]: 76.4 µM; TGI [50]: > 89.1 µM; TGI [51]: > 100 µM; TGI [52]: > 100 µM; TGI [53]: > 100 µM; TGI [54]: > 100 µM; TGI [55]: > 100 µM; TGI [56]: > 100 µM; TGI [57]: > 100 µM
